# According to patent US6767890B1, “Peptides having anti-cancer and anti-inflammatory activity” (priority 1998, dated 2004):
# Where “and” joins values, the source holds several entries; their conditions need not be identical. Identical values can stand only once.
# Tests used:
# [1] = tested on: Protein Kinase C, Non-Select.; assay: Protein Kinase C, Non-Select. enzyme assay; type: biochemical, rat; conditions: 300.0 μM; average of duplicate; negative = stimulation
# Method: (§1) The peptide was further screened in vitro in a variety of enzyme and biochemical assays. Methods employed were adapted from the scientific literature to maximize reliability and reproducibility. The primary literature reference for each assay is listed in Table 11 opposite the results for each assay.
# (§2) Results presented in Table 10, “Results,” are the average of duplicate determinations, unless otherwise noted.
# Reference compounds were tested concurrently at 5 concentrations as an integral part of each assay to ensure the validity of the results obtained.
# (§3) Enzyme assays were performed under conditions described in Table 8, “Experimental Conditions.”. The commercial suppliers and catalog numbers of substrates employed in this study are given in Table 7, “Material Sources.” The name, commercial source, and catalog numbers of concurrent reference compounds (controls) employed in this study are given in Table 9, “Reference Compound Data.” The reaction catalyzed by each enzyme is listed in Table 8, “Experimental Conditions.”
# (§4) Biochemical assay results are presented in Table 10, as the percent inhibition of specific binding or activity, and unless noted are the average of duplicate tubes tested at each concentration.
# [2] = tested on: DNBS-induced distal colitis; assay: Inflammation, Inflammatory Bowel Disease (DNBS distal colitis); type: in vivo, rat; conditions: PO, Peptide 30 mg/kg × 7, Sulfasalazine 300 mg/kg × 7
# Method: For in vivo assay, distilled water and saline was used as vehicle in oral and intraperitoneal administration, respectively. Dosing volume was 20 ml/kg for mice or 10 ml/kg for rats.
# Groups of 3 Sprague-Dawley derived male rats weighing 150±20 gms and fasted for 24 hours were used. Distal colitis was induced by intra-colonic instillation of DNBS (2,4-dinitrobenzene sulfonic acid, 30 mg in 0.5 ml ethanol 30%) after which air (2 ml) was gently injected through the cannula to ensure that the solution remains in the colon. Test substance was administered PO (30 mg/kg) at 24 and 2 hours before DNBS instillation. Then, the animals received test compound every 24 hours for 5 consecutive days. The control group was given vehicle alone as compound dosing pattern. The animals were sacrificed 24 hours after the final dose of test compound administration and each colon was removed and weighed. Colon-to-body weight ratio was obtained from the percentage of the comparison between the animal colon weight and body weight on the 8th day. A 30 percent or more (±30%) reduction in colon-to-body weight ratio relative to the vehicle treated control group was considered significant.
# [3] = target: T1, Cyclooxygenase-2 (Ovis aries, UniProt P79208); assay: Cyclooxygenase-2 enzyme assay; type: biochemical, sheep; conditions: 300.0 μM; average of duplicate; negative = stimulation
# T1 construct: sheep placenta; from tissue; host or cells: sheep placenta
# T1 sequence (P79208 17-603): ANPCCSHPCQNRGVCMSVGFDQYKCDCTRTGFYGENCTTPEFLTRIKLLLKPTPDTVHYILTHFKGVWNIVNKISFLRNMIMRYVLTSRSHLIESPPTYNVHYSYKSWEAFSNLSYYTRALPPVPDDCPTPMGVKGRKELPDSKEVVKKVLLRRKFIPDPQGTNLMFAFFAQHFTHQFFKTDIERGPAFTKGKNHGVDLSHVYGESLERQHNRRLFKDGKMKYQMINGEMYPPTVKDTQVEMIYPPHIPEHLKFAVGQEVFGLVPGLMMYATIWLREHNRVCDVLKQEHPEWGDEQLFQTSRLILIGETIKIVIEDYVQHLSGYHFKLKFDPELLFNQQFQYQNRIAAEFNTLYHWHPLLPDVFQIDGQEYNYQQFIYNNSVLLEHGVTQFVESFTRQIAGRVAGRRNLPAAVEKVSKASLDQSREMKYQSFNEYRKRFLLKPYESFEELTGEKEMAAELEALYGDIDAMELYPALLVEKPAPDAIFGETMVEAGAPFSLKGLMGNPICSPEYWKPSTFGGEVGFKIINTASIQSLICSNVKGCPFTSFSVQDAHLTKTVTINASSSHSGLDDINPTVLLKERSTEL
# Method: (§5) The peptide was further screened in vitro in a variety of enzyme and biochemical assays. Methods employed were adapted from the scientific literature to maximize reliability and reproducibility.
# Unless otherwise indicated, the peptide was tested in duplicate at the concentrations indicated for each assay. Results presented in Table 10, “Results,” are the average of duplicate determinations, unless otherwise noted.
# as §3, §4
# [4] = target: Ca++ Ch.-L, Dihydropyridine (Rattus norvegicus, UniProt P22002); assay: Ca++ Ch.-L, Dihydropyridine radioligand binding; conditions: 10.0 μM; specific binding of [3H]Nitrendipine; negative = stimulation
# Sequence of Ca++ Ch.-L, Dihydropyridine (P22002 whole entry): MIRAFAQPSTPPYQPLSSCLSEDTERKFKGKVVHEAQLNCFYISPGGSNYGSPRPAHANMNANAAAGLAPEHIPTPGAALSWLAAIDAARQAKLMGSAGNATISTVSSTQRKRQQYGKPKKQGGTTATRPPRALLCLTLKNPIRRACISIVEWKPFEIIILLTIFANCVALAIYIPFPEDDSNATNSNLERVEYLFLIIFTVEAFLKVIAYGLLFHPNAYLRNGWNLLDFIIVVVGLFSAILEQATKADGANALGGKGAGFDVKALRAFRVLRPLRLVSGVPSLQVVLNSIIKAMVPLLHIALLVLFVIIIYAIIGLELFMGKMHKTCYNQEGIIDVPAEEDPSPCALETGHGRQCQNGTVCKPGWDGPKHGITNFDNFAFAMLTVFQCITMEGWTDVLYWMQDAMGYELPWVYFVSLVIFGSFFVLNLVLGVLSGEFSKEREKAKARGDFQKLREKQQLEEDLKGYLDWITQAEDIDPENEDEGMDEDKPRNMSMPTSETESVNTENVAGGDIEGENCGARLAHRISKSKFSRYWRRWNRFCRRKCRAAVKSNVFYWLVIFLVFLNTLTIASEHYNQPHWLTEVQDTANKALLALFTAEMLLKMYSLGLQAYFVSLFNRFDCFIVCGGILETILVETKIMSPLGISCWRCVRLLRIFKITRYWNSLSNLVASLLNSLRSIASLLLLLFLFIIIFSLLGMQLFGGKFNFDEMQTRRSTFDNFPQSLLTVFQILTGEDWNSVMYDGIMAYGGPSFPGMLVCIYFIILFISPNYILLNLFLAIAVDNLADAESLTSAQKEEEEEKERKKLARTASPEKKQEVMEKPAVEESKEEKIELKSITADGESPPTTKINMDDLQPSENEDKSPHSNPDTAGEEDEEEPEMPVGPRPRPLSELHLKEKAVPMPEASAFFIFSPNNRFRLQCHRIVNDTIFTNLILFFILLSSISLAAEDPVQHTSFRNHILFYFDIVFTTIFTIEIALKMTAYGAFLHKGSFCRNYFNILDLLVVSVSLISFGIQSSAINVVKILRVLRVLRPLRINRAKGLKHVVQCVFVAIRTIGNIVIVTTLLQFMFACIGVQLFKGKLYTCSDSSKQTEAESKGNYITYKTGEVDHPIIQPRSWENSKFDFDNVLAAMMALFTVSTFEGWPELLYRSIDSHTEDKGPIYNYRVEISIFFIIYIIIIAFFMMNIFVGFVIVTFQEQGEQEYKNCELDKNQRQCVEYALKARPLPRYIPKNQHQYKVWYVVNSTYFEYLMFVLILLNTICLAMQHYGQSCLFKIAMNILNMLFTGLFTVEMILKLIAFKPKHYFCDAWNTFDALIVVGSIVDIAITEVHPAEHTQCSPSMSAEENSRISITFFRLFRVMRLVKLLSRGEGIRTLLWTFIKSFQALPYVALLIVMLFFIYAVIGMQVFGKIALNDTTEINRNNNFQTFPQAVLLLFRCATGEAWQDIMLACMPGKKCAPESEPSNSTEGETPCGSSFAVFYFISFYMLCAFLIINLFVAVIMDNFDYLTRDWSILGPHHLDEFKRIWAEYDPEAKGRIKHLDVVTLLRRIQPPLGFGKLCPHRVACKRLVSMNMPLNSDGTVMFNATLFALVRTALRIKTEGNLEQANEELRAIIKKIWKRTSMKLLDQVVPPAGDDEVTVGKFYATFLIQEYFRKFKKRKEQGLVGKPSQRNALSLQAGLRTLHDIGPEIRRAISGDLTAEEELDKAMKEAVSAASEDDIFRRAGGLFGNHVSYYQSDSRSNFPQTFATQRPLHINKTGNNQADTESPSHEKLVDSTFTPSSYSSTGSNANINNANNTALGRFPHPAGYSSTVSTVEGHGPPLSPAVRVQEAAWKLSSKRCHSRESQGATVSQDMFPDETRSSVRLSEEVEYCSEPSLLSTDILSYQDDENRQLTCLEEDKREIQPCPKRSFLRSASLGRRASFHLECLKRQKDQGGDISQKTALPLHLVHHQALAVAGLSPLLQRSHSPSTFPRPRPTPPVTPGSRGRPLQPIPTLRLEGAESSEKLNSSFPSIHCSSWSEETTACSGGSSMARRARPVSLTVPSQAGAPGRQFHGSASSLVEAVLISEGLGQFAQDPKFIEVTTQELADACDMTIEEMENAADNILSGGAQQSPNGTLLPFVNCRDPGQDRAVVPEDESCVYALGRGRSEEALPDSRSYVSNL
# Method: as §5, §2
# Radioligand binding assays were performed under conditions described in Table 8, “Experimental Conditions.” Radioligands employed in this study are given in Table 8, and commercial sources and catalog numbers of the radioligands are provided in Table 7, “Material Sources.” Unlabeled, blocking ligands employed this study are listed in Table 8, “Experimenal Conditions,” along with the commercial sources and catalog number of the unlabeled ligand. The concurrent reference compound (control) employed in each assay is listed in Table 9, “Reference Compound Data,” along with the commercial supplier and catalog number of the compound. Where receptors have been obtained through recombinant expression techniques, the species from which the cDNA was obtained, and the type of expression system employed (mammalian, insect, bacterial) is also given Table 7.
# Maximum total binding and nonspecific binding were determined each time each assay was run. Nonspecific binding was defined as the proportion of total binding not displaced by unlabeled ligand specific for the receptor. […]
# [5] = target: T2, Interleukin-1α (Mus musculus, UniProt P13504); assay: Interleukin-1α radioligand binding; conditions: 10.0 μM; specific binding of [125I]IL-1 alpha; negative = stimulation
# T2 construct: 3T3 cells; endogenous in cells; host or cells: Swiss 3T3 cells
# T2 sequence (P13504 20-576): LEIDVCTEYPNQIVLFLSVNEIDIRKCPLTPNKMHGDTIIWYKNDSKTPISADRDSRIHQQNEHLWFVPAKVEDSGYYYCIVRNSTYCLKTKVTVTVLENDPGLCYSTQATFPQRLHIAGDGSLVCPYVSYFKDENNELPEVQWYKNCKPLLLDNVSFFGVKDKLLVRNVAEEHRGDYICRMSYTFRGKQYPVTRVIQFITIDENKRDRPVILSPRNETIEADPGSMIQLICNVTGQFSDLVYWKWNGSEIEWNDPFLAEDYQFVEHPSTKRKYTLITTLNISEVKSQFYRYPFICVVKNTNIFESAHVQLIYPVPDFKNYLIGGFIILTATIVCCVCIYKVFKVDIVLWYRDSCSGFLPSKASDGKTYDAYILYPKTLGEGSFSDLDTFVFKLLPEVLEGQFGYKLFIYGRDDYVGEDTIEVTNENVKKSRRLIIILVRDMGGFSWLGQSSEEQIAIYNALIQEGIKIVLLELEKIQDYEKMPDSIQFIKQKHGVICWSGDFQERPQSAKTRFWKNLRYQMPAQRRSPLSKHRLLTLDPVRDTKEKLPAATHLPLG
# Method: as §1, §2
# Reference compounds were tested concurrently at 5 concentrations as an integral part of each assay to ensure the validity of the results obtained. […]
# Maximum total binding and nonspecific binding were determined each time each assay was run. […]
# Where inhibition constants (Ki) are presented, the Ki values were calculated using the equation of Cheng and Prusoff (Cheng, Y., Prusoff, W. H., Biochem. Pharmacol. […], 1973) using the observed IC50 of the tested compound, the concentration of radioligand employed in the assay, and the historical values for the Kd of the ligand (obtained experimentally). Where presented, the Hill Coefficient (nH), defining the scope of the competitive binding curve, was calculated using GraphPad Prism. […] Where IC50, Ki, and/or Hill Slope data is presented without Standard Error of the Mean (SEM), data are insufficient to be quantitative, and the values presented (Ki, IC50, nH) should be interpreted with caution. […]
substance,measurement,setting,value
LEU-PRO-PRO-SER-ARG [Peptide],% Inhibition,[1],−6%
same,Ratio Net,[2]; group mean minus blank-control,0.276%
same,"Ratio Ind., X (group mean)",[2]; group mean,0.646%
same,Ratio Ind. (colon-to-body weight ratio),"[2]; individual rat, Colon (g)/8th B.W. × 100%",0.683% and 0.608%
same,% INH.,[2]; reduction in colon-to-body weight ratio relative to vehicle control,22%
same,% Inhibition,[3],2%
same,% Inhibition,[4],2%
same,% Inhibition,[5],15%
